Reference: publication PMC9775322, “An Integrated Analysis of Mechanistic Insights into Biomolecular Interactions and Molecular Dynamics of Bio-Inspired Cu(II) and Zn(II) Complexes towards DNA/BSA/SARS-CoV-2 3CL^pro by Molecular Docking-Based Virtual Screening and FRET Detection” (Biomolecules, 2022)

Columns and labels:
[1] = target: T1, BSA (Bos taurus, UniProt P02769); assay: Förster's theory-based FRET computation, donor (BSA)–acceptor (compound); type: binding, bovine; design: kET (rate of exchange resonance energy transfer): unit not given here; conditions: for J (normalized spectral overlap integral): BSA emission vs compound absorption; for kET (rate of exchange resonance energy transfer) / r (donor-acceptor separation): BSA–compound; for E (efficiency of energy transfer): E=1−F/F0; for B (average brightness of the complex-BSA system): free BSA = 6573.60 M^−1 cm^−1; for R0 (critical distance, 50% energy transfer): n = 1.36, Φ = 0.15, K^2 = 2/3
T1 construct: purchased Sigma Aldrich
Source text: As per Förster’s theory, the critical distance of the donor-acceptor system can be determined with the supporting of the FRET approach to assess the binding affinity between BSA-substance systems. […]
excitation and emission directions, respectively. Also, the alteration in absorbance (OD) at the excitation and fluorescence wavelengths, respectively, is sometimes referred to as A ex and […]
F = 1+KSV [Q] = 1+ Kq τ0 (S13)
Where [Q] is represented as the sample concentration (quencher), the emission intensities F 0 and F are those in the […] of the quencher, respectively.
F ) = log Kass + nlog [Q] (S14)
KEB[EB] = Kapp[compound] (S15)
∆F = (F 0–F), Equation (16) was utilized to examine the Lineweaver –Burk binding constant (KLB) from the linear regression plot of 1/(F0–F) vs 1/[Q]. […]
γ =(F0–F)/F0, CF is denoted as the concentration of sample alone, the linear regression plot of (γ/CF) vs γ was employed to support equation (17), which was used to determine the values of KSA and n, respectively.
2.2.6. FRET calculation by Förster’s theory
Calculating FRET (Fluorescence Resonance Energy Transfer) is a crucial approach in determining the critical distance (r) between donor (BSA) and acceptor (test compound) molecules, in which the binding affinity between the BSA-complex systems could be evalued according to Förster’s theory. The overlap of the emission spectrum of the donor (BSA) and the absorption spectrum of the acceptor (compound) describes that the acceptor (compound) group may get excited as a result of the excited donor's (BSA) energy being lost to the ground […]
The relative orientation factor of the dipoles (K 2) is associated with the geometry of the BSA and complex of the dipoles, the value for random orientation (K 2 = 2/3) like in a fluid […]
F(λ) is represented as the corrected or the normalized emission intensity(OD) of the bovine serum albumin in the range of λ–(λ+∆λ), ε(λ) is denoted as the molar extinction coefficient of […]
The radiative, non-radiative decay and quenching rate constants are denoted as k r, knr and kq, respectively, and the concentration of complex (quenching species) is described as [Q].

[2] = tested on: CT-DNA; assay: DNA binding by cyclic voltammetry; design: species or system calf; conditions: for Kb, Method II: Cp/Cf vs [DNA]; for Kb, Method III: Ip^2 vs (Ipo^2 − Ip^2)/[DNA]; for Kred/Koxi (Calcd): Nernst equation, Ant.log nEs°/0.0591, n = 1; for Kred/Koxi Found (I): from method I binding constants; for Kb, Method I, Oxi / Kb, Method I, Red: log (1/[DNA]) vs log (I/I0 − I); for Kb, Method I, Oxi: oxidation; for Kb, Method I, Red: reduction; for S (binding site size): method II
Procedure: The CV experiment was carried out for free substances at 10 µM at room temperature with a 5 mM Tris-HCl/50 mM NaCl buffer solution (pH: 7.4). While CT-DNA increases (0–10 µM) in each sample solution, shifts in potential, including variations in the anodic and cathodic peak currents, have been monitored.
2.2.7. Evaluation of DNA interaction properties using cyclic voltammetry technique The electrochemical analysis is a critical entity to examine the electron transfer reactions of the test compounds. With a scan rate of 0.1V, the CHI 620C electrochemical analyzer was utilized with a three-electrode system consisting of glassy carbon as the working electrode, Ag/AgCl as the reference electrode, and platinum wire as the counter/auxiliary electrode to monitor changes in peak current and peak potential during the interaction between test compound and DNA. The changes in peak current and peak potential further afford data on the binding constant as well as the mode of interaction for test compound –DNA adducts. In single-compartment cells of 5 –15 mL, electrochemical titrations for all test compounds were executed at 25 °C in the absence and presence of DNA. The solutions were then deoxygenated by passing them through N 2 before measurements were made. The electrochemical analysis for free compounds was executed at a 10 µM concentration in the presence of 5mM Tr is-HCl /50 mM NaCl (pH = 7.2) buffer solution. Changes in the anodic […]
and cathodic peak currents, as well as potential shifts, have been observed as CT-DNA concentrations in each solution of complexes rise from 1 to 10 µM [32].
I ) = log [DNA] + log Kb (S24)
The peak currents of the chemical in the absence and presence of deoxyribonucleic acid are designated as I0 and I, respectively.
Kb values for all samples were estimated through the linear regression plot of log (1/[DNA]) versus log (I/I0–I) by method-I. Equation (S26) was attained from equation (S25).
Cf and Cb are represented as the free substance concentration and DNA-interacted compound, respectively, and equation (S28) was obtained by comparing equations (S26) and (S27).
Ipa is denoted as the anodic peak current in amperes, n is represented as the number of electrons participating in the redox (M 1+/M2+) process (n=1), The activation coefficient (charge transfer coefficient) is shown by the symbol α. and the value is equal to 0.5, which is a typically supported approximation for numerous quasi-reversible systems.
2.3. DFT and molecular modelling studies
DFT calculations were performed to comprehend the electronic structure and reactivity of ligand (HL) and metal complexes ( 1b-2b) using the Gaussian 09 package [ 34]. Geometries were fully optimized both in the gas phase and methanol solution using B3LYP, and comparatively later with the CAM-B3LYP and M06-2X functionals. For each complex, the […]

[3] = Superoxide scavenging assay; type: biochemical; conditions: 590 nm
[4] = tested on: Candida albicans; assay: Agar disc diffusion antifungal test; conditions: for diameter of clear zone inhibition / Inhibition %: I; for diameter of clear zone inhibition: 20 µL of 100 µM on 6 mm disc, Control (DMSO) = 6 mm; for Inhibition %: (T–C)/T × 100

T1 sequence (P02769 25-607): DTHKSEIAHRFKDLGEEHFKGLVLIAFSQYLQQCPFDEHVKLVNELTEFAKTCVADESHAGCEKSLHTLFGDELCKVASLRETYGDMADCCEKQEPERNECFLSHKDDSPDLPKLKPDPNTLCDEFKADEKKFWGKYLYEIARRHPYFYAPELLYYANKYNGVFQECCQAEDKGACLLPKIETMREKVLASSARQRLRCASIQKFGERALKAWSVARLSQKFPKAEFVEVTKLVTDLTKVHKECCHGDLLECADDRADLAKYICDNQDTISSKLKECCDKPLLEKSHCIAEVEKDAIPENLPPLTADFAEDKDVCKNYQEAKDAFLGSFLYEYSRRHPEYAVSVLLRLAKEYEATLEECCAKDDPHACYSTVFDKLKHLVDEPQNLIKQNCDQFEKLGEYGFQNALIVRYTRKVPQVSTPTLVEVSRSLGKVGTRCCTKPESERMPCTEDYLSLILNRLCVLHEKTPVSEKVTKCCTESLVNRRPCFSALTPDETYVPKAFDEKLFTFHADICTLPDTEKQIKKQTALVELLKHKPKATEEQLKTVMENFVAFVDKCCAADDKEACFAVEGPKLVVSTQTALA

Row | SMILES | J (normalized spectral overlap integral) [1] | kET (rate of exchange resonance energy transfer) [1] | r (donor-acceptor separation) [1] [nm] | E (efficiency of energy transfer) [1] | B (average brightness of the complex-BSA system) [1] [M⁻¹ cm⁻¹] | R0 (critical distance, 50% energy transfer) [1] [nm] | Kb, Method II [2] [M⁻¹] | Kb, Method III [2] [M⁻¹] | Kred/Koxi (Calcd) [2] | Kred/Koxi Found (I) [2] | Kb, Method I, Oxi [2] [M⁻¹] | Kb, Method I, Red [2] [M⁻¹] | S (binding site size) [2] [bp] | % Inhibition, superoxide ([3]; 40 µM) [%] | % Inhibition, superoxide ([3]; 80 µM) [%] | % Inhibition, superoxide ([3]; 120 µM) [%] | % Inhibition, superoxide ([3]; 160 µM) [%] | % Inhibition, superoxide ([3]; 200 µM) [%] | % Inhibition, superoxide ([3]; 240 µM) [%] | Inhibition % [4] [%] | also measured
1 | [Cu+2].[O-]c1ccccc1N=Cc1ccc(N2CCOCC2)cc1.[O-]c1ccccc1N=Cc1ccc(N2CCOCC2)cc1.c1cnc2c(c1)ccc1cccnc12 [(1b), [Cu^II(L)2(phen)]] | 0.6852 × 10^−14 LM^−1cm^3 | 3.8294 | 2.7780 | 0.2769 | 4999.08 | 2.3673 | 35514 | 21695 | 3.2434 | 1.2053 | 17320 | 20878 | 0.267 | 08.45 | 16.53 | 32.18 | 48.09 | 60.93 | 68.21 | 45 | IC50 [3]: 200 µM; diameter of clear zone inhibition [4]: 11 mm
2 | [O-]c1ccccc1N=Cc1ccc(N2CCOCC2)cc1.[O-]c1ccccc1N=Cc1ccc(N2CCOCC2)cc1.[Zn+2].c1cnc2c(c1)ccc1cccnc12 [(2b), [Zn^II(L)2(phen)]] | 0.9460 × 10^−14 LM^−1cm^3 | 4.7730 | 2.8257 | 0.3231 | 5650.81 | 2.4980 | 32242 | 18300 | 3.7609 | 1.1168 | 14610 | 16317 | 0.248 | 06.70 | 12.58 | 24.23 | 40.35 | 52.23 | 60.02 | 40 | diameter of clear zone inhibition [4]: 10 mm
3 | Oc1ccccc1N=Cc1ccc(N2CCOCC2)cc1 [(HL), 2-(4-morpholinobenzylideneamino)phenol] | 0.8215 × 10^−14 LM^−1cm^3 | 5.8443 | 2.6685 | 0.3462 | 5339.79 | 2.4400 | 2477 | 4837 | 2.0964 | 1.1125 | 5280 | 5874 | 0.446 | 05.23 | 10.74 | 18.85 | 33.55 | 40.91 | 50.42 | 40 | zone of inhibition at 100 µM ([4]; read-out: diameter of clear zone inhibition): 10 mm
